The target in assay [1] is T1, triton-extracted alpha-synuclein from PD Tissue (Homo sapiens, UniProt P37840).
T1 construct: tissue Analytic Biological Services Inc; host or cells: human PD temporal cortex grey matter, Triton X-100 insoluble pellet
The assay can be described thus: Alpha-synuclein tissue homogenate binding assay (Assay 1), displacement of [^3H]-1000. The following applies: for Selectivity ratio (Assay 2/Assay 1): Aβ Tissue Ki / α-synuclein Tissue Ki; for Ki: read-out: α-synuclein Tissue Ki (Assay 1). As for the experimental part:
Frozen human brain tissues from PD patients were purchased from Analytic Biological Services Inc. The samples were post-mortem tissues from donors with clinical diagnosis of late stage of PD. Alpha-synuclein, tau and amyloid burden was determined through a combination of immunohistochemistry on frozen thin coronal sections, as well as alpha Lisa-based quantification of protein levels in a detergent insoluble protein fraction. A tissue sample of temporal cortex was identified from one donor as having moderate to high alpha-synuclein burden, low amyloid and minimal to no tau pathology. The detergent insoluble fraction of temporal cortex from this patient was used to support homogenate binding studies. Grey matter was dissected out of the temporal cortex tissue with a dissecting blade and minced with fine dissecting scissors. […] Homogenates were centrifuged at 100,000×g for 45 minutes. The pellet was resuspended in TBS-TX buffer, using a Polytron at highest setting for 30 seconds at 4° C. Homogenates were centrifuged at 100,000×g for 45 minutes and the pellet was resuspended in TBS-TX buffer. A BCA protein assay was performed on the final homogenate to determine the protein concentration. […] For displacement a-synuclein binding assay, compounds and control were solvated in dimethyl sulfoxide (DMSO) and transferred using focused acoustic energy by an Echo 655 liquid handling instrument (Beckman Coulter, Indianapolis, IN) into designated wells of uniquely bar coded 96-well v-bottom low binding polypropylene microplates (Thermo Scientific, 249946). Compound dose response curves were prepared in a 10-point, 3-fold fashion within columns 2-11 of the microplate from high to low compound concentrations. […] Liquid-handling steps for dispensing insoluble fractions of PD brain homogenates and radioligand were performed using a Bravo automated liquid handling platform equipped with a 96LT disposable tip head (Agilent Technologies, Santa Clara. CA). […] The incubation was terminated by rapid filtration through UniFilter-96 GF/C microplates (pre-treated for 30 minutes with 0.2% Polyethylenimine at 4° C.) by using a FilterMate Harvester (PerkinElmer). […] The bottom of each UniFilter-96 GF/C microplate was adhesively sealed (PerkinElmer 6005199) prior to the addition of 50 μL MicroScint-20 liquid scintillation cocktail (PerkinElmer 6013621) to each well. A clear adhesive seal (TopSeal-A PLUS, PerkinElmer 6050185) was then applied to the top of each microplate and counted 1 minute/well on MicroBeta^2 system (PerkinElmer.

Assay [2] deals with aggregated beta amyloid in AD tissue (Homo sapiens, UniProt P05067). The assay can be described thus: Competitive radioligand binding to pathological aggregated beta amyloid in AD tissue (Assay 2), displacement of [^3H]-105. As to conditions: Aβ-rich AD frontal cortex homogenate, [^3H]-105, Kd 11.0 nM.
Sequence of aggregated beta amyloid in AD tissue (P05067 672-711 limits assumed): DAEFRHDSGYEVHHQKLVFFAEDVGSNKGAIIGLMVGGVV
Protocol: Frozen human brain samples of Alzheimer's disease (AD) were purchased from Analytic Biological Services Inc. The samples were post-mortem tissue from donors with clinical diagnosis of AD and much of the white matter was dissected out of the frontal cortex in order to enrich the tissue preparations for gray matter. Brain homogenates of gray matter enriched frontal cortex were prepared by homogenizing the tissue in ice cold Phosphate Buffered Saline (PBS), pH 7.4 at 80 mg wet weight tissue per 1 ml for 45 seconds at 4° C., on setting 16 of Polytron. The homogenate was further diluted with ice cold PBS to 30 mg wet weight tissue per 1 ml and homogenized for an additional minute as described above. Homogenates were aliquoted in 5 ml/tube and stored at −70° C. until use.
Radioligand [^3H]-105, prepared as described in ACS Med. Chem. Lett., Vol. 2, pages 498-502, was used in this assay.
For Assay 2 unlabeled test compounds were dissolved in DMSO at 10 mM. Dilutions of tests compounds to various concentrations were made in 100% DMSO at 1000× final assay concentration and 0.225 μl aliquots were dispensed into assay plates. Brain homogenates were diluted to 0.5 mg/ml from original 30 mg/ml volume in Assay Buffer, and 200 μl were added to the assay plate for a final concentration of 100 ug wet weight/assay well. [^3H]-105 was prepared at 10× final concentration in Assay Buffer plus 20% DMSO and 25 μl was added to the assay plate for final assay concentration of 3.0 nM. The plates were incubated at 37° C. for 90 minutes. Unbound and bound ligand were separated by filtration of bound onto GF/B filter plates (pre-treated for 30 min with 0.1% PEI) using a Packard Filtermate and washing away unbound with 2.5 mil ice cold 5 mM Tris at pH 7.4. Filter plates were dried for 1 hr at 57° C. and 50 μl Microscint was added to each well of the plate. The plates were counted for ^3H cpm for 1 min per well using PerkinElmer TopCount.
[3] abbreviates: insoluble fraction of PD brain homogenate, [^3H]-1000 3.0 nM, Kd 0.90 nM.

Where two headings read alike, the source gives them in different places.

As usually defined, the Ki is the equilibrium dissociation constant of an inhibitor or competing ligand from its target. Regarding `Cn1cc(-c2ccc(C#Cc3cnc(N4CCN(c5ncncn5)[C@@H](COCCF)C4)nc3)cn2)cn1` [Example 50, (R)-2-(2-((2-fluoroethoxy)methyl)-4-(5-((6-(1-methyl-1H-pyrazol-4-yl)pyridin-3-yl)ethynyl)pyrimidin-2-yl)piperazin-1-yl)-1,3,5-triazine], the “Selectivity ratio (Assay 2/Assay 1)” value in assay [1] is listed as 2673. Besides, the inhibition constant Ki in assay [1] (setting [3]) is 0.449 nM; in assay [2] it was no less than 1200 nM. On to `OC[C@H]1CN(c2ccc(F)nc2)CCN1c1ncc(/C=C/c2ccc(-n3ccnc3)nc2)cn1` [Example 33, (R,E)-(1-(5-(2-(6-(1H-imidazol-1-yl)pyridin-3-yl)vinyl)pyrimidin-2-yl)-4-(6-fluoropyridin-3-yl)piperazin-2-yl)methanol], for which the “Selectivity ratio (Assay 2/Assay 1)” value in assay [1] was determined as 6667. Also, the inhibition constant Ki in assay [1] was 1.8 nM; in assay [2], no less than 12000 nM. As for `COC[C@H]1CN(c2ccc(F)nc2)CCN1c1ncc(/C=C/c2ccc(-n3ccnc3)nc2)cn1` [Example 32, (R,E)-5-(2-(6-(1H-imidazol-1-yl)pyridin-3-yl)vinyl)-2-(4-(6-fluoropyridin-3-yl)-2-(methoxymethyl)piperazin-1-yl)pyrimidine], in assay [1], the “Selectivity ratio (Assay 2/Assay 1)” value is 13333. In addition, the Ki in assay [1] (setting [3]) was 0.9 nM; in assay [2], no less than 12000 nM. For `OCC(F)COC[C@H]1CN(c2ncc(C#Cc3ccc(-n4ccnc4)nc3)cn2)CCN1c1ncccn1` (stereo partly drawn) [Example 63, 3-(((R)-4-(5-((6-(1H-imidazol-1-yl)pyridin-3-yl)ethynyl)pyrimidin-2-yl)-1-(pyrimidin-2-yl)piperazin-2-yl)methoxy)-2-fluoropropan-1-ol], in that order: 1314, 0.913 nM and no less than 1200 nM. Regarding `COC[C@H]1CN(c2ncc(/C=C/c3ccc(-n4ccnc4)nc3)cn2)CCN1c1ncc(CF)cn1` [Example 8, (R,E)-5-(2-(6-(1H-imidazol-1-yl)pyridin-3-yl)vinyl)-2-(4-(5-(fluoromethyl)pyrimidin-2-yl)-3-(methoxymethyl)piperazin-1-yl)pyrimidine], the “Selectivity ratio (Assay 2/Assay 1)” value in assay [1] worked out at 10909. Further, the Ki in assay [1] (setting [3]) is 1.1 nM; in assay [2], no less than 12000 nM.

In the case of `OC[C@H]1CN(c2ncc(C#Cc3ccc(-n4ccnc4)nc3)cn2)CCN1c1ncccn1` [Example 10, (R)-(4-(5-((6-(1H-imidazol-1-yl)pyridin-3-yl)ethynyl)pyrimidin-2-yl)-1-(pyrimidin-2-yl)piperazin-2-yl)methanol], the “Selectivity ratio (Assay 2/Assay 1)” value in assay [1] stood at 2449. Moreover, the Ki in assay [1] was 4.9 nM; in assay [2], no less than 12000 nM. For `COC[C@H]1CN(c2ncc(C#Cc3ccc(-n4cnnc4)nc3)cn2)CCN1c1cc(F)ncn1` [Example 45, (R)-5-((6-(4H-1,2,4-triazol-4-yl)pyridin-3-yl)ethynyl)-2-(4-(6-fluoropyrimidin-4-yl)-3-(methoxymethyl)piperazin-1-yl)pyrimidine], in assay [1], the “Selectivity ratio (Assay 2/Assay 1)” value was 589. In addition, the figures for the inhibition constant Ki in assay [1] (setting [3]) and in assay [2] were 2.04 nM and no less than 1200 nM, respectively.

As to `FCCOC[C@H]1CN(c2ncc(C#Cc3ccc(-n4cnnc4)nc3)cn2)CCN1c1ncncn1` [Example 70, (R)-2-(4-(5-((6-(4H-1,2,4-triazol-4-yl)pyridin-3-yl)ethynyl)pyrimidin-2-yl)-2-((2-fluoroethoxy)methyl)piperazin-1-yl)-1,3,5-triazine], in assay [1], the “Selectivity ratio (Assay 2/Assay 1)” value was 472. The Ki in assay [1] (setting [3]) is 2.54 nM; in assay [2] it was no less than 1200 nM.

In the case of `COC[C@H]1CN(c2ncc(C#Cc3cnc(-n4cnnc4)nc3)cn2)CCN1c1ccc(F)cn1` [Example 89, (R)-5-((2-(4H-1,2,4-triazol-4-yl)pyrimidin-5-yl)ethynyl)-2-(4-(5-fluoropyridin-2-yl)-3-(methoxymethyl)piperazin-1-yl)pyrimidine], the inhibition constant (Ki) in assay [1] (setting [3]) is 2.59 nM.

In the case of `COC[C@H]1CN(c2ncc(C#Cc3cnc(-c4cnn(CF)c4)nc3)cn2)CCN1c1ncncn1` [Example 56, (R)-2-(4-(5-((2-(1-(fluoromethyl)-1H-pyrazol-4-yl)pyrimidin-5-yl)ethynyl)pyrimidin-2-yl)-2-(methoxymethyl)piperazin-1-yl)-1,3,5-triazine], in assay [1] (setting [3]), the Ki amounted to 0.64 nM. Broadly, the Kd is a measure of binding affinity in units of concentration. Regarding “[^3H]-(S)-6-(1H-imidazol-1-yl)-N-(2-(2-methyl-4-(pyridin-2-yl)piperazin-1-yl)pyrimidin-5-yl)nicotinamide [[^3H]-1000, reference compound]”, in assay [1] (radioligand [^3H]-1000, PD brain insoluble fraction), the Kd amounted to 0.9 nM. For the compound `COC[C@H]1CN(c2ncc(C#Cc3cnc(-c4cnn(CCCF)c4)nc3)cn2)CCN1c1ncncn1` [Example 91, (R)-2-(4-(5-((2-(1-(3-fluoropropyl)-1H-pyrazol-4-yl)pyrimidin-5-yl)ethynyl)pyrimidin-2-yl)-2-(methoxymethyl)piperazin-1-yl)-1,3,5-triazine], the Ki in assay [1] (setting [3]) was determined as 2.44 nM. Consider `COC[C@H]1CN(c2ncccn2)CCN1c1ncc(/C=C/c2ccc(-n3ccnc3)nc2)cn1` [Example 28, (R,E)-5-(2-(6-(1H-imidazol-1-yl)pyridin-3-yl)vinyl)-2-(2-(methoxymethyl)-4-(pyrimidin-2-yl)piperazin-1-yl)pyrimidine], for which the “Selectivity ratio (Assay 2/Assay 1)” value in assay [1] is 3077. The inhibition constant Ki in assay [1] (setting [3]) is 1.3 nM.

For the compound `C[C@H]1CN(c2ccc(F)cn2)CCN1c1ncc(C#Cc2cnc(-n3cnnc3)nc2)cn1` [Example 86, (S)-5-((2-(4H-1,2,4-triazol-4-yl)pyrimidin-5-yl)ethynyl)-2-(4-(5-fluoropyridin-2-yl)-2-methylpiperazin-1-yl)pyrimidine], in assay [1] (setting [3]), the Ki was 2.59 nM. Regarding `COC[C@H]1CN(c2ncc(/C=C/c3ccc(-n4ccnc4)nc3)cn2)CCN1c1ncc(OCCF)cn1` [Example 35, (R,E)-5-(2-(6-(1H-imidazol-1-yl)pyridin-3-yl)vinyl)-2-(4-(5-(2-fluoroethoxy)pyrimidin-2-yl)-3-(methoxymethyl)piperazin-1-yl)pyrimidine], in assay [1], the “Selectivity ratio (Assay 2/Assay 1)” value amounted to 2000. Moreover, the Ki in assay [1] (setting [3]) worked out at 2 nM. For the compound `COC[C@H]1CN(c2ncc(C#Cc3cnc(-c4cnn(CCF)c4)nc3)cn2)CCN1c1ccc(F)cn1` [Example 85, (R)-2-(1-(2-fluoroethyl)-1H-pyrazol-4-yl)-5-((2-(4-(5-fluoropyridin-2-yl)-3-(methoxymethyl)piperazin-1-yl)pyrimidin-5-yl)ethynyl)pyrimidine], the Ki in assay [1] (setting [3]) was determined as 1.05 nM. `Cn1cc(-c2ncc(C#Cc3cnc(N4CCN(c5ncccn5)[C@@H](COCCOCCOCCOCCF)C4)nc3)cn2)cn1` [Example 83, (R)-2-(3-(13-fluoro-2,5,8,11-tetraoxatridecyl)-4-(pyrimidin-2-yl)piperazin-1-yl)-5-((2-(1-methyl-1H-pyrazol-4-yl)pyrimidin-5-yl)ethynyl)pyrimidine]: the inhibition constant (Ki) in assay [1] (setting [3]) was 2.39 nM. Take `Cn1nccc1-c1ncc(C#Cc2cnc(N3CCN(c4ncncn4)[C@@H](COCCF)C3)nc2)cn1` [Example 98, (R)-2-(2-((2-fluoroethoxy)methyl)-4-(5-((2-(1-methyl-1H-pyrazol-5-yl)pyrimidin-5-yl)ethynyl)pyrimidin-2-yl)piperazin-1-yl)-1,3,5-triazine]: the Ki in assay [1] (setting [3]) is 1.96 nM. Consider `COC[C@H]1CN(c2ncncn2)CCN1c1ncc(C#Cc2cnc(-c3cnn(CCF)c3)nc2)cn1` [Example 84, (R)-2-(4-(5-((2-(1-(2-fluoroethyl)-1H-pyrazol-4-yl)pyrimidin-5-yl)ethynyl)pyrimidin-2-yl)-3-(methoxymethyl)piperazin-1-yl)-1,3,5-triazine], for which the inhibition constant (Ki) in assay [1] (setting [3]) stood at 2.29 nM. Turning to `COC[C@H]1CN(c2ncc(C#Cc3ccc(-c4cc(F)ncn4)nc3)cn2)CCN1c1ncc(C#N)cn1` [Example 81, (R)-2-(4-(5-((6-(6-fluoropyrimidin-4-yl)pyridin-3-yl)ethynyl)pyrimidin-2-yl)-2-(methoxymethyl)piperazin-1-yl)pyrimidine-5-carbonitrile], in assay [1] (setting [3]), the Ki was 1.18 nM. Regarding `FCCOC[C@H]1CN(c2ncc(C#Cc3cnc(-c4cnco4)nc3)cn2)CCN1c1ncncn1` [Example 55, (R)-5-(5-((2-(3-((2-fluoroethoxy)methyl)-4-(1,3,5-triazin-2-yl)piperazin-1-yl)pyrimidin-5-yl)ethynyl)pyrimidin-2-yl)oxazole], the Ki in assay [1] (setting [3]) is 6.67 nM.
